Data taken from US20020037531A1, “Expression cloning of protein targets for phospholipids” (priority 1999, published 2002).
Where a chain is given by its changes, count along the chain named.

Tests used:
PH domain of EST684797 = biological target: T1, PH domain of EST684797 (Homo sapiens, UniProt Q9UN19); conditions: literature; cited from earlier work
T1 sequence (Q9UN19 164-259): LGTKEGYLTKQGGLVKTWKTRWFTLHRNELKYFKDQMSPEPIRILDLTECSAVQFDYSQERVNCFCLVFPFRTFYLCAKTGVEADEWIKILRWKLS

PH domain of PDK1 = biological target: T2, PH domain of PDK1 (Homo sapiens, UniProt O15530); conditions: literature, relative affinities; cited from earlier work
T2 sequence (O15530 459-550 limits assumed): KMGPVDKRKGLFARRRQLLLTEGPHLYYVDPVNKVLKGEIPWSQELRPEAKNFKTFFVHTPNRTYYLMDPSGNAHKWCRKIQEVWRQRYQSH

PHISH = biological target: T3, PHISH (Mus musculus, UniProt Q9QXT1); assay: Competition binding of non-biotinylated lipids against biotinylated PtdIns-3,4,5-P3 on avidin beads; parameters: species or system murine; conditions: for relative affinity for PHISH in competition binding studies: FIG. 4B; for displacement of PHISH from PtdIns-3,4,5-P3-biotin bound to avidin beads: FIG. 4B legend, compared with PtdIns-4,5-P2
T3 construct: the gene for PHISH isolated from the expression screen encodes the entire protein; made in house; host or cells: in vitro transcription/translation (reticulocyte lysate) of a clone from a murine spleen cDNA library in pCS2(+)
T3 sequence (Q9QXT1 1-280): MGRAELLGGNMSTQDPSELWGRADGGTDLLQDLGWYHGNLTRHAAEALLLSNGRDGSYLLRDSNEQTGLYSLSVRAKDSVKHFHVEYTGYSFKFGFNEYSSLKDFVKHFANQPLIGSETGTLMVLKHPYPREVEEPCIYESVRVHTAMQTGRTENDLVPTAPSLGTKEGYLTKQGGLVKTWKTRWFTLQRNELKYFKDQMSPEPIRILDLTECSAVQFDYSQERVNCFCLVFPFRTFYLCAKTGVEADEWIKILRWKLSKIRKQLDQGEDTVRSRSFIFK
Procedure: (§1) Binding and Isolation of Radiolabeled In Vitro Translated Proteins with Biotinylated Phosphoinositides. Avidin beads (Ultralink immobilized Neutravidin™, Pierce Chemical) were washed twice with 5 volumes of wash/binding (WB) buffer (10 mM HEPES pH=7.4, 150 mM NaCl, 0.5% NP-40, 5 mM DTT). The beads were then reconstituted in 2×volume of WB buffer and the biotinylated phosphoinositide was added. Generally, 0.1 μl of 100 μM biotinylated lipid was bound per 1 μl of packed avidin beads. The biotinylated lipid was incubated with the beads for 1-2 hours at 4° C. with gentle agitation and then washed twice with 10×-bead volume of WB buffer to remove excess ligand. Control beads without biotinylated lipid were prepared in an identical manner but without the addition of the lipid. 5 μl of the ^35S-labelling reaction containing the in vitro transcribed/translated protein was then added to the tubes and the protein was allowed to bind for 2 hours at 4° C. with gentle agitation. The tubes were then centrifuged briefly, the beads were washed 2×with 0.5 ml WB buffer, and the bound proteins were eluted by boiling the beads in 20 μl Laemmli sample buffer containing 5% 2-mercaptoethanol. The proteins were then separated on a 13.75% SDS-PAGE gel. Following electrophoresis the gel was soaked in EnHance (Dupont/NEN) for 1 hour and then in a 7.5% w/v solution of PEG-3350 for 1 hour. The gel was then dried and subjected to autoradiography.
Competition Binding of Isolated Proteins for Non-biotinylated Lipids over Biotinylated Lipids. […] Binding was quantitated by measuring the intensities of bands from the autoradiogram or by scintillation counting of the eluted proteins in Laemmli sample buffer using Opti-fluor (Packard). Binding curves were modeled by the equation: […]
where % bound represents the quantity of protein bound to the biotinylated lipid coated beads in the presence of a concentration C of competing lipid. IC50 is the molar excess of competitor C required to reduce the % bound to 50% of its maximal value in the absence of competitor.
In Vitro Translation Expression Cloning. A murine spleen cDNA library containing 2×10^5 independent clones was divided into 1700 individual small pools. The cDNAs in this library had been cloned into the in vitro transcription vector pCS2(+) under control of the SP6 promoter. Individual cDNAs from positive pools were isolated from the other cDNAs of the pool using a 96-well format as described previously. The individual cDNAs were sequenced (Harvard Biopolymer Facility) and compared with known sequences by searching GenBank databases.

[1] = biological target: MBP-Akt PH fusion protein (Mus musculus, UniProt P31750); assay: as above; conditions: FIG. 2C legend; compared with PtdIns-4,5-P2
Procedure: The proteins were expressed by transcribing/translating 0.01-1 μg of DNA of MBP or MBP-Akt PH with the Promega TnT Coupled Reticulocyte Lysate System using SP6 RNA polymerase and ^35S-methionine (in vivo labeling grade, Amersham) according to the manufacturers protocol.
Binding and Isolation of Radiolabeled In Vitro Translated Proteins with Biotinylated Phosphoinositides. Avidin beads (Ultralink immobilized Neutravidin™, Pierce Chemical) were washed twice with 5 volumes of wash/binding (WB) buffer (10 mM HEPES pH=7.4, 150 mM NaCl, 0.5% NP-40, 5 mM DTT). The beads were then reconstituted in 2×volume of WB buffer and the biotinylated phosphoinositide was added. Generally, 0.1 μl of 100 μM biotinylated lipid was bound per 1 μl of packed avidin beads. The biotinylated lipid was incubated with the beads for 1-2 hours at 4° C. with gentle agitation and then washed twice with 10×-bead volume of WB buffer to remove excess ligand. […]
Competition Binding of Isolated Proteins for Non-biotinylated Lipids over Biotinylated Lipids. […] Binding was quantitated by measuring the intensities of bands from the autoradiogram or by scintillation counting of the eluted proteins in Laemmli sample buffer using Opti-fluor (Packard). […]

[2] = biological target: T4, PDK1 (C-terminal fragment with PH domain) (Mus musculus, UniProt Q9Z2A0); assay: Binding of 35S-labeled in vitro translated protein to avidin beads pre-bound with biotinylated phosphoinositide; parameters: species or system murine; conditions: FIG. 3A top panel right
T4 construct: the first in-frame AUG codon appears at the end of the kinase domain such that only the entire PH domain of PDK1 is translated; made in house; host or cells: in vitro transcription/translation (reticulocyte lysate) of a clone from a murine spleen cDNA library in pCS2(+)
T4 sequence (Q9Z2A0 462-553 limits assumed): T2 sequence (O15530 459-550 limits assumed) with R88Q, H92N
Procedure: as §1, with “The gel was then dried and subjected to autoradiography.” left out

PH domain of Akt = PH domain of Akt (Homo sapiens, UniProt P31749); conditions: two published studies; cited from earlier work
PH domain of Akt, sequence (P31749 5-108 limits assumed): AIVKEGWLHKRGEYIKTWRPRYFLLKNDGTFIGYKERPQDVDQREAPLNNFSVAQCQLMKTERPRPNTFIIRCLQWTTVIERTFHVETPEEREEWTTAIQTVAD

MBP-Akt PH fusion protein, sequence (P31750 1-130): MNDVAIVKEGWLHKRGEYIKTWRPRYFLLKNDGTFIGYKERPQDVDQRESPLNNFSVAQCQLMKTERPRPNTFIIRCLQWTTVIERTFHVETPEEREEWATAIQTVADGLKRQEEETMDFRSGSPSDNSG

Substance	binding to the PH domain of EST684797 (PH domain of EST684797)	affinity for the PH domain of PDK1 (PH domain of PDK1)	relative affinity for PHISH in competition binding studies (PHISH)	displacement of PHISH from PtdIns-3,4,5-P3-biotin bound to avidin beads (PHISH)	displacement of MBP-PH from PtdIns-3,4,5-P3-biotin [1]	binding of the expressed purified PDK1 fragment (single clone) [2]	rank order of affinities for the PH domain of Akt (PH domain of Akt)
phosphatidylinositol-3,4,5-trisphosphate [PtdIns-3,4,5-P3]	binds tightly and selectively	four-fold higher affinity	equal affinity	preferentially displace			
phosphatidylinositol-3,4-bisphosphate [PtdIns-3,4-P2]	binds tightly and selectively		equal affinity	preferentially displace	preferentially displace	apparent lower affinity than for PtdIns-3,4,5-P3	PtdIns-3,4,5-P3>PtdIns-3,4-P2>>PtdIns-4,5-P2
phosphatidylinositol-4,5-bisphosphate [PtdIns-4,5-P2]		much lower affinity	significantly lower affinity				PtdIns-3,4,5-P3>PtdIns-3,4-P2>>PtdIns-4,5-P2
